# Entries after “also recorded” stand apart in the source; their conditions may differ. Residues, ends and D or L forms follow the SMILES beside them.
# Columns and labels:
# MPO [1] = target: T1, MPO (Homo sapiens, UniProt P05164); settings: reported, order of magnitude; cited from earlier work
# T1 sequence (P05164 49-745): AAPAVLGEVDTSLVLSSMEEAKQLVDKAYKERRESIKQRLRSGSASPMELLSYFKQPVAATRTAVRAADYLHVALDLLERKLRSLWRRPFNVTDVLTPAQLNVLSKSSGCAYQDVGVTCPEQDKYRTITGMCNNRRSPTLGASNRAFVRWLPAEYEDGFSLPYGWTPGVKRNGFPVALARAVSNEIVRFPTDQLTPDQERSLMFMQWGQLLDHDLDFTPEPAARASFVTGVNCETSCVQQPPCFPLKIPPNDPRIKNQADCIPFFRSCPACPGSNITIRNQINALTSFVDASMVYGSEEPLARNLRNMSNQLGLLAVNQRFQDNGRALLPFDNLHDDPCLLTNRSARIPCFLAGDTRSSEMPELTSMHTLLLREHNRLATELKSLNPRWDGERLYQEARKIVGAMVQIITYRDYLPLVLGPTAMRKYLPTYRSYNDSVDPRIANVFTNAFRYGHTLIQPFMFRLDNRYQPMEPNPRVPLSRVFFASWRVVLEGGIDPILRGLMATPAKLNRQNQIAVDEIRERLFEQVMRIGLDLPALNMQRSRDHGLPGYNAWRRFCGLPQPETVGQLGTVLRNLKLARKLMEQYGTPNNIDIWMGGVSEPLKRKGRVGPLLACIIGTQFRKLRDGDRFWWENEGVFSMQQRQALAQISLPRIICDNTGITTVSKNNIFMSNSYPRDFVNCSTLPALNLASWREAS
# MPO [2] = target: T1, MPO; assay: MPO-mediated LDL oxidation (conjugated diene formation, 234 nm); type: biochemical; design: purchased Lee Biosolutions (St. Louis, Mo.); settings: 25 μM; for MPO/H2O2/nitrite-mediated LDL oxidation (in words): H2O2 100 μM, NaNO2 100 μM; for MPO/H2O2-mediated LDL oxidation in the absence of nitrite (in words): without NaNO2
# Protocol: MPO-mediated oxidation of LDL. […] LDL oxidation was monitored at 234 nm at room temperature on a HP UV/VIS spectrometer. Absorbance traces represent the average of duplicate experiments.
# MPO-mediated LDL Oxidation. […] Rates of LDL oxidation were monitored at room temperature at 234 nm, the wavelength maximum for conjugated dienes.
# MPO-mediated LDL Conjugated Diene Formation: Reaction mixtures contained LDL (0.15 mg/mL), NaNO2 (100 μM), H2O2 (100 μM), MPO (20 nM) and increasing concentrations of KYC or equimolar concentrations of various compounds in a phosphate buffer (100 mM, pH 7.4) containing DTPA (100 μM). Rates of LDL conjugated diene formation were determined by following changes in absorbance at 234 nm, the wavelength maximum for conjugated dienes, on a UV-Vis spectrophotometer (Agilent Model 8453) at room temperature.
# MPO [3] = target: T1, MPO; assay: MPO-catalyzed HOCl production (taurine/TMB assay); type: biochemical; design: purchased Lee Biosolutions (St. Louis, Mo.); settings: for Dose-dependent effect on MPO-catalyzed HOCl production (in words): increasing concentrations, FIG. 14C/14D; for Effect on MPO HOCl production at equimolar concentration (in words): 12.5 μM
# Protocol: MPO-mediated HOCl Production. MPO (20 nM) was incubated with H2O2 (50 μM), NaCl (150 mM), taurine (5 mM) and increasing concentrations of KYC in phosphate buffer (100 mM, pH 7.4) which also contained diethylene triamine pentaacetic acid (DTPA, 100 μM) to prevent non-specific, divalent metal cation oxidation for 30 min. Reactions were halted by addition of catalase. Chlorotaurine was quantified using the 3,3-,5,5-tetramethylbenzidine (TMB) assay. Briefly, 400 μL of reaction solution was mixed with 100 μL of 2 mM TMB, 100 μM NaI containing 10% dimethylformamide (DMF) in 400 mM acetate buffer (pH 5.4). After 5 min, absorbance (650 nm) was recorded on a UV/Vis spectrophotometer (Agilent Model 8453).
# MPO-catalyzed HOCl Production: MPO (20 nM) was incubated with H2O2 (50 μM), NaCl (150 mM), taurine (5 mM) and increasing concentrations of KYC in a phosphate buffer (100 mM, pH 7.4) containing diethylene triamine pentaacetic acid (DTPA, 100 μM) to prevent non-specific, divalent metal cation oxidation for 30 min. Reactions were halted by addition of catalase (2,000 units/mL). Chlorotaurine was quantified using the TMB assay (66). Briefly, 400 μL of reaction solution was mixed with 100 μL of 2 mM TMB, 100 μM NaI containing 10% dimethylformamide (DMF) in 400 mM acetate buffer (pH 5.4). After 5 min, absorbance (650 nm) was recorded on a UV/Vis spectrophotometer (Agilent Model 8453).
# SS/Mcw rat hearts = assay: Ischemia/reperfusion injury in isolated perfused hearts; settings: FIG. 5B
# Description: Ischemia/Reperfusion (I/R) Injury in Isolated Hearts. Rats used in this study received humane care in compliance with the Guide for the Care and Use of Laboratory Animals, by the National Research Council. Rats were maintained on a low salt (0.4% NaCl) diet with unlimited access to water. Environmental influences were minimized by maintaining rats in identical housing conditions. Dahl S (SS/Mcw male rats at 8 weeks of age were used for this study.
# Modified Krebs-Henseleit bicarbonate buffer was prepared containing the following components (in mM): 118.5 NaCl, 25.0 NaHCO3, 4.8 KCl, 1.2 MgSO4.6H2O, and 1.2 KH2PO4 (pH 7.4 when gassed with 95% O2-5% CO2) in which the calcium content was 1.8. Glucose (11.1 mM) was added to the perfusate. Before use, all perfusion fluids were filtered through cellulose acetate membranes with a pore size of 5 μm. To this perfusate, drugs (KAA, KYC) were added as needed. Animals were weighed, and heparin was administered intraperitoneally based on weight (150 IU/kg). Anesthesia was induced with pentobarbital sodium (30 mg/kg ip). […] Left ventricular pressure (LVP) was measured isovolumetrically with a transducer connected to a thin, saline-filled latex balloon inserted into the left ventricle through the mitral valve from an incision in the left atrium. […]
# [4] = Solubility in aqueous buffers; type: physicochemical
MPO/H2O2/nitrite-mediated LDL oxidation (in words) (MPO [2]),MPO/H2O2-mediated LDL oxidation in the absence of nitrite (in words) (MPO [2]),Compound,further results
–,–,CC(=O)N[C@@H](CCCCN)C(=O)N[C@@H](Cc1c[nH]c2ccccc12)C(=O)N[C@@H](CS)C(N)=O [KWC] (Ac-Lys-Trp-Cys-NH2),Cardioprotection in SS/Mcw rat hearts (in words) (SS/Mcw rat hearts): increase cardioprotection
did not inhibit but actually enhanced,increased,"N[C@@H](Cc1c[nH]c2ccccc12)C(=O)O [Trp, tryptophan]",Effect on MPO HOCl production at equimolar concentration (in words) (MPO [3]): effective inhibitor
accelerated and enhanced,increased,"N[C@@H](Cc1ccc(O)cc1)C(=O)O [Tyr, tyrosine]","Effect on MPO HOCl production at equimolar concentration (in words) (MPO [3]): little, if any effect; Effect on MPO HOCl production at equimolar concentration (in words) (MPO [3]; listed as Tyrosine): little if any effect"
–,–,"N[C@@H](Cc1ccc(O)cc1)C(=O)N[C@@H](CS)C(=O)O [YC, reference compound] (H-Tyr-Cys-OH; N-terminus and C-terminus assumed)",Solubility in water / aqueous buffers (in words) [4]: difficult to dissolve in aqueous buffers
accelerated LDL oxidation,–,N-acetyl Lysyltyrosylcyeteine amide [KYS],Dose-dependent effect on MPO-catalyzed HOCl production (in words) (MPO [3]): failed to inhibit; also recorded: not an inhibitor

Compound,MPO/H2O2/nitrite-mediated LDL oxidation (in words) (MPO [2]),MPO/H2O2-mediated LDL oxidation in the absence of nitrite (in words) (MPO [2]),further results
"N[C@@H](CCC(=O)N[C@@H](CS)C(=O)NCC(=O)O)C(=O)O [GSH, glutathione]",ineffective,inhibited; also recorded: did not increase LDL oxidation,Rate of reaction with MPO/H2O2 systems (MPO [1]): 10 to 100 M⁻¹ s⁻¹
"CC(=O)N[C@@H](CCCCN)C(=O)N[C@@H](Cc1ccccc1)C(=O)N[C@@H](CS)C(N)=O [KFC, N-acetyl Lysylphenylalanylcysteine amid] (Ac-Lys-Phe-Cys-NH2)","increased the lag phase and delayed, but did not totally inhibit",–,Dose-dependent effect on MPO-catalyzed HOCl production (in words) (MPO [3]): weaker inhibitor

# Source: patent publication US8937039B2, “Peptide-based peroxidase inhibitors and methods of using same” (The Medical College of Wisconsin, Inc., priority 2009, dated 2015)
